Patent US8420657B2 (Novartis AG, priority 2008, dated 2013)

target: T1, GST-JAK2(808-1132) (Homo sapiens, UniProt O60674); test: JAK2 kinase assay (Caliper mobility shift, LabChip 3000); format: biochemical
T1 construct: GST-JAK2(808-1132); purchased Invitrogen (Carlsbad, USA) #4288
Text: All four kinases of the JAK/TYK-kinase family were used as purified recombinant GST-fusion proteins, containing the active kinase domains. GST-JAK1 (866-1154), GST-JAK3(811-1124), and GST-TYK2(888-1187) were expressed and purified by affinity chromatography at the EPK biology unit. GST-JAK2(808-1132) was purchased from Invitrogen (Carlsbad, USA, #4288).
The kinase assays were based on the Caliper mobility shift assay using the LabChip 3000 systems. This technology is similar to capillary electrophoresis and uses charge driven separation of substrate and product in a microfluidic chip.
All kinase reactions were performed in 384 well microtiter plates in a total reaction volume of 18 μl. The assay plates were prepared with 0.1 μl per well of test compound in the appropriate test concentration, as described under the section “preparation of compound dilutions”. The reactions were started by combining 9 μl of substrate mix (consisting of peptide and ATP) with 9 μl of kinase dilution. The reactions were incubated for 60 minutes at 30° C. and stopped by adding 70 μl of stop buffer (100 mM Hepes, 5% DMSO, 0.1% Coating reagent, 10 mM EDTA, 0.015% Brij 35).
Fluorescently labeled synthetic peptides were used as substrates in all reactions. A peptide derived from the sequence of IRS-1(IRS-1 peptide, SEQ ID NO: 1 FITC-Ahx-KKSRGDYMTMQIG-NH2) was used for JAK1 and TYK2 and a peptide named JAK3tide SEQ ID NO: 2 (FITC-GGEEEEYFELVKKKK-NH2) for JAK2 and JAK3. Specific assay conditions are described in Table1:
The terminated reactions were transferred to the Caliper LabChip 3000 reader and the turnover of each reaction was measured by determining the substrate/product ratio.
Test compounds were dissolved in DMSO (10 mM) and transferred into 1.4 mL flat bottom or V-shaped Matrix tubes carrying a unique 2D matrix chip by individual compound hubs. The numbers of these chips were distinctively linked to the individual compound identification numbers. The stock solutions were stored at −20° C. if not used immediately. For the test procedure the vials were defrosted and identified by a scanner whereby a working sheet was generated that guided the subsequent working steps. Compound dilutions were made in 96 well plates. This format enabled the assay of maximally 40 individual test compounds at 8 concentrations (single points) including 4 reference compounds. The dilution protocol included the production of pre-dilution plates, master plates and assay plates:
Pre-dilution plates: 96 polypropylene well plates were used as pre-dilution plates. A total of 4 pre-dilution plates were prepared including 10 test compounds each on the plate positions A1-A10, one standard compound at A11 and one DMSO control at A12. All dilution steps were done on a HamiltonSTAR robot.
Master plates: 100 μL of individual compound dilutions including standard compound and controls of the 4 “pre-dilution plates” were transferred into a 384 “master plate” including the following concentrations 1,820, […], 182, 54.6, 18.2, 5.46, 1.82 and 0.546 μM, respectively in 90% of DMSO.
Assay plates: Identical assay plates were then prepared by pipetting 100 nL each of compound dilutions of the master plates into 384-well “assay plates”. In the following the compounds were mixed with 9 μL of assays components plus 9 μL enzyme corresponding to a 1:181 dilution steps enabling the final concentration of 10, 3.0, 1.0, 0.3, 0.1, 0.03, 0.01 and 0.003 μM, respectively. The preparation of the master plates were handled by the Matrix PlateMate Plus robot and replication of assay plates by the HummingBird robot.

T1 sequence (O60674 808-1132): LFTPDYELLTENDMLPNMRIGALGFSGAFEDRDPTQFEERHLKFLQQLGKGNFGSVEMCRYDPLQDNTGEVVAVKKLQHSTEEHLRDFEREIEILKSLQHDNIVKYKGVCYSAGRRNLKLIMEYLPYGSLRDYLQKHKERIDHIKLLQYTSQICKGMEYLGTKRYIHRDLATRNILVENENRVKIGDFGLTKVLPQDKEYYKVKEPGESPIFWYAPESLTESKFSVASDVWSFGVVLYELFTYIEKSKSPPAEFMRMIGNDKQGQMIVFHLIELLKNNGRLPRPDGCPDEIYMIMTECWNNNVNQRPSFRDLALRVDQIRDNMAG

| IC50 [nM] | Compound |
| --- | --- |
| < 3 | Fc1cc(-n2ccc3cnc(Nc4ccc(CN5CCNCC5)cc4)nc32)cc(F)c1CN1CCOCC1 [Example 315, [7-(3,5-Difluoro-4-morpholin-4-ylmethyl-phenyl)-7H-pyrrolo[2,3-d]pyrimidin-2-yl]-(4-piperazin-1-ylmethyl-phenyl)-amine] |
| 24 | O=C(c1c(F)cc(-n2ccc3cnc(Nc4ccnc(N5CCNC6(CC6)C5)c4)nc32)cc1F)N1CCOCC1 [Example 281, (4-{2-[2-(4,7-Diaza-spiro[2.5]oct-7-yl)-pyridin-4-ylamino]-pyrrolo[2,3-d]pyrimidin-7-yl}-2,6-difluoro-phenyl)-morpholin-4-yl-methanone] |
| < 3 | CCN(CC)CCOc1ccc(Nc2ncc3ccn(-c4ccc(S(C)(=O)=O)cc4)c3n2)cc1 [Example 33, [4-(2-Diethylamino-ethoxy)-phenyl]-[7-(4-methanesulfonyl-phenyl)-7H-pyrrolo[2,3-d]pyrimidin-2-yl]-amine] |
| 3.6 | COc1cc(Nc2ncc3ccn(-c4ccc(S(C)(=O)=O)cc4)c3n2)cc(OC)c1 [Example 23, (3,5-Dimethoxy-phenyl)-[7-(4-methanesulfonyl-phenyl)-7H-pyrrolo[2,3-d]pyrimidin-2-yl]-amine] |
| ≤ 3 | Cc1cc(Nc2ncc3ccn(-c4cc(F)c(CN5CCOCC5)c(F)c4)c3n2)ccc1CN1CCNCC1 [Example 460, [7-(3,5-Difluoro-4-morpholin-4-ylmethyl-phenyl)-7H-pyrrolo[2,3-d]pyrimidin-2-yl]-(3-methyl-4-piperazin-1-ylmethyl-phenyl)-amine] |
| < 3 | CS(=O)(=O)c1ccc(-n2ccc3cnc(Nc4ccc(CN5CCNCC5)cc4)nc32)cc1 [Example 52, [7-(4-Methanesulfonyl-phenyl)-7H-pyrrolo[2,3-d]pyrimidin-2-yl]-(4-piperazin-1-ylmethyl-phenyl)-amine] |
| < 3 | COc1ccc(Nc2ncc3ccn(-c4ccc(S(C)(=O)=O)cc4)c3n2)cc1OC [Example 5, (3,4-Dimethoxy-phenyl)-[7-(4-methanesulfonyl-phenyl)-7H-pyrrolo[2,3-d]pyrimidin-2-yl]-amine] |
| 3.5 | CN1CCN(c2ccc(Nc3ncc4ccn(-c5cc(F)c(CO)c(F)c5)c4n3)cn2)CC1 [Example 280, (2,6-Difluoro-4-{2-[6-(4-methyl-piperazin-1-yl)-pyridin-3-ylamino]-pyrrolo[2,3-d]pyrimidin-7-yl}-phenyl)-methanol] |
| 4.8 | CC(C)(C)OC(=O)N1CCN(C(=O)c2ccc(Nc3ncc4ccn(-c5ccc(S(C)(=O)=O)cc5)c4n3)cc2)CC1 [Example 69, 4-{4-[7-(4-Methanesulfonyl-phenyl)-7H-pyrrolo[2,3-d]pyrimidin-2-ylamino]-benzoyl}-piperazine-1-carboxylic acid tert-butyl ester] |
| 26 | Cc1ccc(Nc2ncc3ccn(-c4ccc(C(=O)N5CCOCC5)c(F)c4)c3n2)cc1 [Example 324, [2-Fluoro-4-(2-p-tolylamino-pyrrolo[2,3-d]pyrimidin-7-yl)-phenyl]-morpholin-4-yl-methanone] |
| < 3 | Cc1ccc(Nc2ncc3ccn(-c4ccc(C(=O)N5CCOCC5)c(F)c4)c3n2)cc1CN1CCN(C)CC1 [Example 326, (2-Fluoro-4-{2-[4-methyl-3-(4-methyl-piperazin-1-ylmethyl)-phenylamino]-pyrrolo[2,3-d]pyrimidin-7-yl}-phenyl)-morpholin-4-yl-methanone] |
| 5.4 | CN1CCN(CCOc2cccc(Nc3ncc4ccn(-c5ccc(S(C)(=O)=O)cc5)c4n3)c2)CC1 [Example 32, [7-(4-Methanesulfonyl-phenyl)-7H-pyrrolo[2,3-d]pyrimidin-2-yl]-{3-[2-(4-methyl-piperazin-1-yl)-ethoxy]-phenyl}-amine] |
| 16 | CN1CCN(c2ccc(Nc3ncc4ccn(-c5ccc(S(N)(=O)=O)cc5)c4n3)cc2)CC1 [Example 349, 4-{2-[4-(4-Methyl-piperazin-1-yl)-phenylamino]-pyrrolo[2,3-d]pyrimidin-7-yl}-benzenesulfonamide] |
| < 3 | COc1ccc(Nc2ncc3ccn(-c4ccc(S(=O)(=O)NC(C)(C)C)cc4)c3n2)cc1OC [Example 6, N-tert-Butyl-4-[2-(3,4-dimethoxy-phenylamino)-pyrrolo[2,3-d]pyrimidin-7-yl]-benzenesulfonamide] |
| ≤ 3 | OC1CCN(Cc2ccc(Nc3ncc4ccn(-c5cc(F)c(CN6CCOCC6)c(F)c5)c4n3)cn2)C1 (racemic) [Example 388, 1-{5-[7-(3,5-Difluoro-4-morpholin-4-ylmethyl-phenyl)-7H-pyrrolo[2,3-d]pyrimidin-2-ylamino]-pyridin-2-ylmethyl}-pyrrolidin-3-ol] |
| 6.9 | C[C@@H]1CN[C@@H](C)CN1c1ccc(Nc2ncc3ccn(-c4ccc(S(N)(=O)=O)cc4)c3n2)cn1 (racemic) [Example 357, 4-{2-[6-((2R,5S)-2,5-Dimethyl-piperazin-1-yl)-pyridin-3-ylamino]-pyrrolo[2,3-d]pyrimidin-7-yl}-benzenesulfonamide] |
| 16 | Cc1ccc(Nc2ncc3ccn(-c4ccc(S(C)(=O)=O)cc4)c3n2)cc1CN1CCOCC1 [Example 328, [7-(4-Methanesulfonyl-phenyl)-7H-pyrrolo[2,3-d]pyrimidin-2-yl]-(4-methyl-3-morpholin-4-ylmethyl-phenyl)-amine] |
| < 3 | CS(=O)(=O)c1ccc(-n2ccc3cnc(Nc4ccc(N5CCNCC5)cc4)nc32)cc1 [Example 37, [7-(4-Methanesulfonyl-phenyl)-7H-pyrrolo[2,3-d]pyrimidin-2-yl]-(4-piperazin-1-yl-phenyl)-amine] |
| < 3 | CS(=O)(=O)c1ccc(-n2ccc3cnc(Nc4ccc(C(=O)NCCO)cc4)nc32)cc1 [Example 51, N-(2-Hydroxy-ethyl)-4-[7-(4-methanesulfonyl-phenyl)-7H-pyrrolo[2,3-d]pyrimidin-2-ylamino]-benzamide] |
| < 3 | C[C@@H]1CN(Cc2ccc(Nc3ncc4ccn(-c5cc(F)c(CN6CCOCC6)c(F)c5)c4n3)cc2)C[C@H](C)N1 [Example 254] |
| 23 | CN(C)c1ccc(Nc2ncc3ccn(-c4ccc(S(C)(=O)=O)cc4)c3n2)cc1 [Example 21, N-[7-(4-Methanesulfonyl-phenyl)-7H-pyrrolo[2,3-d]pyrimidin-2-yl]-N′,N′-dimethyl-benzene-1,4-diamine] |
| 290 | Cc1ccc(Nc2ncc3ccn(-c4ccc(C(=O)N5CCOCC5)c(F)c4)c3n2)nc1C [Example 222, {4-[2-(5,6-Dimethyl-pyridin-2-ylamino)-pyrrolo[2,3-d]pyrimidin-7-yl]-2-fluoro-phenyl}-morpholin-4-yl-methanone] |
| 3.2 | CC(=O)N1CCN(Cc2ccc(Nc3ncc4ccn(-c5cc(F)c(C(=O)N6CCOCC6)c(F)c5)c4n3)cc2)CC1 [Example 323, 1-[4-(4-{7-[3,5-Difluoro-4-(morpholine-4-carbonyl)-phenyl]-7H-pyrrolo[2,3-d]pyrimidin-2-ylamino}-benzyl)-piperazin-1-yl]-ethanone] |
| 6.9 | CS(=O)(=O)c1ccc(-n2ccc3cnc(Nc4ccccc4)nc32)cc1 [Example 19, [7-(4-Methanesulfonyl-phenyl)-7H-pyrrolo[2,3-d]pyrimidin-2-yl]-phenyl-amine] |
| ≤ 3 | CN1CCN(c2ccc(Nc3ncc4ccn(-c5cc(F)c(CN6CCNC(=O)C6)c(F)c5)c4n3)cc2)CC1 [Example 341, 4-(2,6-Difluoro-4-{2-[4-(4-methyl-piperazin-1-yl)-phenylamino]-pyrrolo[2,3-d]pyrimidin-7-yl}-benzyl)-piperazin-2-one] |
| < 3 | Fc1cc(-n2ccc3cnc(Nc4cccc(CN5CCOCC5)c4)nc32)cc(F)c1CN1CCOCC1 [Example 198, [7-(3,5-Difluoro-4-morpholin-4-ylmethyl-phenyl)-7H-pyrrolo[2,3-d]pyrimidin-2-yl]-(3-morpholin-4-ylmethyl-phenyl)-amine] |
